Reference: patent US10906878B2, “Kinase inhibitors for the treatment of disease” (Dana-Farber Cancer Institute, Inc., priority 2013, dated 2021)

Tests used:
Assay type in all cases: cell-based
EGFR Del Ba/F3 cells = EGFR Del Ba/F3 cells (Homo sapiens, UniProt P00533, cells depend on it, form not given); assay: Ba/F3 cell growth inhibition (MTS assay), EGFR Del; conditions: for IC50: Assay 1, Del, read-out: EGFR Ba/F3 cells IC 50 (nM) Assay 1 Del
Description: (§1) The specific cDNAs encoding the oncogenic alterations (EGFR: Del 19, L858R, L718Q, L844V, Del/T790M, L858R/T790M, Del 19/L718Q, Del 19/L844V, Del 19/T790M/L718Q and L858R/T790M/L718Q; FGFR: TEL-FGFR1, TEL-FGFR2, TEL-FGFR1 V561M, TEL-FGFR2 V561M; ALK: EML4-ALK; ROS1: CD74-ROS1) were cloned into the pDNA-Dual (BD Biosciences) vector using standard molecular biology techniques. Mutations were introduced using site-directed mutagenesis (Agilent) with mutant specific primers according to the manufacturer's instructions. All constructs were confirmed by DNA sequencing. The constructs were introduced into Ba/F3 cells using retroviral infection. Polyclonal cell lines were established by puromycin selection and subsequently cultured in the absence of interleukin-3 (IL-3). Uninfected Ba/F3 cells or cell lines expressing green fluorescent protein (GFP) were used as controls.
(§2) Growth and inhibition of growth was assessed by MTS assay. This assay, a colorimetric method for determining the number of viable cells, is based on the bioreduction of 3-(4,5-dimethylthiazol-2-yl)-5-(3-carboxymethoxyphenyl)-2-(4-sulfophenyl)-2H-tetrazolium (MTS) by cells to a formazan product that is soluble in cell culture medium, can be detected spectrophotometrically and was performed according to the manufacturer's recommended conditions. Ba/F3 cells were exposed to treatment for 72 hours and the number of cells used per experiment determined empirically to assure linear growth kinetics over that time period. All experimental points were set up in six to twelve wells and all experiments were repeated at least three times. […] The curves were fitted using a non-linear regression model with a sigmoidal dose response.

[1] = molecular target: EGFR L858R/T790M Ba/F3 cells (Homo sapiens (Human), UniProt P00533, L858R/T790M); assay: Ba/F3 cell growth inhibition (MTS assay), EGFR L858R/T790M; conditions: for IC50: Assay 1, L858R/T790M, read-out: EGFR Ba/F3 cells IC 50 (nM) Assay 1 L858R/T790M
Description: as §1, §2

[2] = molecular target: EGFR L858R/T790M/L718Q Ba/F3 cells (Homo sapiens (Human), UniProt P00533, L718Q/L858R/T790M); assay: Ba/F3 cell growth inhibition (MTS assay), EGFR L858R/T790M/L718Q; conditions: for EGFR activity (% Control, 100 nM drug) L858R/T790M/L718Q: Table F; for IC50: Assay 1, T/L/L718Q, read-out: EGFR Ba/F3 cells IC 50 (nM) Assay 1 T/L/L718Q
Description: as §1, §2

EGFR L858R Ba/F3 cells = EGFR L858R Ba/F3 cells (Homo sapiens (Human), UniProt P00533, L858R); assay: Ba/F3 cell growth inhibition (MTS assay), EGFR L858R; conditions: for IC50: Assay 1, L858R, read-out: EGFR Ba/F3 cells IC 50 (nM) Assay 1 L858R
Description: as §1, §2

[3] = molecular target: EGFR L718Q/L858R Ba/F3 cells (Homo sapiens (Human), UniProt P00533, L718Q/L858R); assay: Ba/F3 cell growth inhibition (MTS assay), EGFR L858R/L718Q; conditions: for EGFR activity (% Control, 100 nM drug) L858R/L718Q: Table F; for IC50: Assay 1, L718Q/L858R, read-out: EGFR Ba/F3 cells IC 50 (nM) Assay 1 L718Q/L858R
[4] = molecular target: EGFR Del/T790M Ba/F3 cells (Homo sapiens, UniProt P00533, T790M, cells depend on it, form not given); assay: Ba/F3 cell growth inhibition (MTS assay), EGFR Del/T790M; conditions: for EGFR activity (% Control, 100 nM drug) DEL/T790M: Table F; for IC50: Assay 1, Del/T790M, read-out: EGFR Ba/F3 cells IC 50 (nM) Assay 1 Del/T790M; for EGFR activity (% Control, 100 nM drug) Del/T790M: Table G
Description: as §1, §2

| SMILES | EGFR activity (% Control, 100 nM drug) Del (EGFR Del Ba/F3 cells; Table F) | EGFR activity (% Control, 100 nM drug) L858R/T790M ([1]; Table F) | EGFR activity (% Control, 100 nM drug) L858R/T790M/L718Q [2] | EGFR activity (% Control, 100 nM drug) L858R (EGFR L858R Ba/F3 cells; Table F) | EGFR activity (% Control, 100 nM drug) L858R/L718Q [3] | EGFR activity (% Control, 100 nM drug) DEL/T790M [4] | EGFR activity (% Control, 100 nM drug) Del (EGFR Del Ba/F3 cells; Table G) | EGFR activity (% Control, 100 nM drug) L858R/T790M ([1]; Table G) | EGFR activity (% Control, 100 nM drug) L858R (EGFR L858R Ba/F3 cells; Table G) | EGFR activity (% Control, 100 nM drug) Del/T790M [4] | other results |
| --- | --- | --- | --- | --- | --- | --- | --- | --- | --- | --- | --- |
| C=CC(=O)Nc1cccc(N(C(=O)NCc2ccccc2)c2cc(NC)ncn2)c1 [Compound 15A] | 47 % Control | 48 % Control | 86 % Control | 3 % Control | 81 % Control | 107 % Control | – | – | – | – | IC50 (EGFR Del Ba/F3 cells): 91.9 nM; IC50 [1]: 376 nM; IC50 [2]: 3260 nM; IC50 (EGFR L858R Ba/F3 cells): 17.7 nM; IC50 [3]: 2150 nM; IC50 [4]: 842 nM |
| COc1ccc(NC(=O)/C=C/CN(C)C)cc1Nc1ncc2c(n1)N(C)C(=O)N(c1ccccc1)C2 [Compound 7A, (E)-4-(dimethylamino)-N-(4-methoxy-3-((8-methyl-7-oxo-6-phenyl-5,6,7,8-tetrahydropyrimido[4,5-d]pyrimidin-2-yl)amino)phenyl)but-2-enamide] | 35 % Control | 102 % Control | 106 % Control | 5 % Control | 96 % Control | 94 % Control | – | – | – | – | – |
| C=CC(=O)N1CCC[C@H]1C(=O)Nc1cc2c(N(C)C(=O)Nc3ccccc3)ncnc2cc1OC [Compound 27A] | – | – | – | – | – | – | 95 % Control | 102 % Control | 87 % Control | 76 % Control | – |
| COc1cc2ncnc(N(C)C(=O)Nc3ccccc3)c2cc1NC(=O)[C@@H]1CCCN1C(=O)CCl [Compound 28A] | – | – | – | – | – | – | 102 % Control | 97 % Control | 94 % Control | 83 % Control | – |
| C=CC(=O)N1CC[C@H](CN(C(=O)Nc2ccccc2)c2cc(Nc3ccc(N4CCN(C)CC4)cc3OC)ncn2)C1 [Compound 33A] | – | – | – | – | – | – | 102 % Control | 106 % Control | 101 % Control | 109 % Control | – |
| C=CC(=O)Nc1cccc(N(C(=O)Nc2ccccc2)c2cc(NC)ncn2)c1 [Compound 14A] | 24 % Control | 75 % Control | 87 % Control | 1 % Control | 76 % Control | 98 % Control | – | – | – | – | – |
| C=CC(=O)Nc1ccc(OC)c(Nc2cc(N(C)C(=O)Nc3ccc(F)c(Cl)c3)ncn2)c1 [Compound 18A] | 30 % Control | 85 % Control | 92 % Control | 1 % Control | 88 % Control | 84 % Control | – | – | – | – | – |
| C=CC(=O)Nc1cccc(Nc2cc(N(C)C(=O)Nc3ccccc3)ncn2)c1 [Compound 13A] | 13 % Control | 71 % Control | 89 % Control | 3 % Control | 90 % Control | 90 % Control | – | – | – | – | – |
| C=CC(=O)N1CCC[C@H]1C(=O)Nc1cc2c(N(C)C(=O)NCc3ccccc3)ncnc2cc1OC [Compound 5A, (S)-1-acryloyl-N-(4-(3-benzyl-1-methylureido)-7-methoxyquinazolin-6-yl)pyrrolidine-2-carboxamide] | – | – | – | – | – | – | 100 % Control | 96 % Control | 107 % Control | 110 % Control | – |
| C=CC(=O)Nc1ccc(OC)c(Nc2cc(N(C)C(=O)NCc3ccccc3)ncn2)c1 [Compound 16A] | 78 % Control | 71 % Control | 92 % Control | 117 % Control | 75 % Control | 86 % Control | – | – | – | – | – |
| C=CC(=O)N1CCC[C@H]1C(=O)Nc1cc2c(N(CCOC)C(=O)NCc3ccccc3)ncnc2cc1OC [Compound 31A] | – | – | – | – | – | – | 111 % Control | 112 % Control | 108 % Control | 110 % Control | – |
| COc1ccc(NC(=O)/C=C/CN(C)C)cc1Nc1cc(N(C)C(=O)Nc2ccccc2)ncn1 [Compound 20A] | 2 % Control | 26 % Control | 93 % Control | 2 % Control | 48 % Control | 126 % Control | – | – | – | – | IC50 (EGFR Del Ba/F3 cells): 2.58 nM; IC50 [1]: 99.1 nM; IC50 [2]: 917 nM; IC50 (EGFR L858R Ba/F3 cells): 0.994 nM; IC50 [3]: 256 nM; IC50 [4]: 211 nM |
| C=CC(=O)Nc1cccc(N(C(=O)Nc2ccc(F)c(Cl)c2)c2cc(Nc3ccc(N4CCN(C)CC4)cc3OC)ncn2)c1 [Compound 22A] | 3 % Control | 4 % Control | 106 % Control | 3 % Control | 84 % Control | 84 % Control | – | – | – | – | – |
| C=CC(=O)Nc1cccc(Nc2cc(N(C(=O)Nc3ccccc3)c3ccc(N4CCN(C)CC4)cc3)ncn2)c1 [Compound 26A] | – | – | – | – | – | – | 87 % Control | 100 % Control | 11 % Control | 91 % Control | – |
| C=CC(=O)Nc1cccc(Nc2cc(N(C(=O)NCc3ccccc3)c3ccc(N4CCN(C)CC4)cc3)ncn2)c1 [Compound 30A] | – | – | – | – | – | – | 94 % Control | 103 % Control | 10 % Control | 104 % Control | – |
| C=CC(=O)N1CC[C@@H](CN(C(=O)Nc2ccccc2)c2cc(Nc3ccc(N4CCN(C)CC4)cc3OC)ncn2)C1 [Compound 32A] | – | – | – | – | – | – | 104 % Control | 110 % Control | 99 % Control | 106 % Control | – |
| C=CC(=O)N1CCC[C@H]1C(=O)Nc1ccc(OC)c(Nc2cc(N(C)C(=O)NCc3ccccc3)ncn2)c1 [Compound 23A] | – | – | – | – | – | – | 106 % Control | 111 % Control | 99 % Control | 102 % Control | – |
| C=CC(=O)N1CCC[C@@H]1C(=O)Nc1ccc(OC)c(Nc2cc(N(C)C(=O)NCc3ccccc3)ncn2)c1 [Compound 24A] | – | – | – | – | – | – | 95 % Control | 108 % Control | 84 % Control | 101 % Control | – |
